Results: US7604993B2, “Combined regulation of neural cell production” (Stem Cell Therapeutics Inc., priority 2001, dated 2009)
“Also recorded” adds a separate entry of the source. No end group written: not given here.

Columns and labels:
[1] = tested on: neurospheres; experiment: Multipotency of neurospheres (neuron, oligodendrocyte, astrocyte derived from each neurosphere); assay type: cell-based; conditions: neurospheres produced in the factor(s)
Protocol: The protocols for neural stem cell culture are described in detail in U.S. Pat. No. 5,750,376 or Shingo et al., 2001. Briefly, embryonic neural stem cells were prepared from E14 medial and lateral ganglionic eminences. Adult neural stem cells were prepared from the subventricular zone of adult mice. The tissue was cultured in basal medium containing 20 ng/ml EGF, or other growth factors as indicated in each case, to form neurospheres. The composition of the basal medium is as follows: DMEM/F12 (1:1); glucose (0.6%); glutamine (2 mM); sodium bicarbonate (3 mM); HEPES (5 mM); insulin (25 μg/ml); transferrin (100 μg/ml); progesterone ([…]); putrescine (60 μM); and selenium chloride (30 nM).
Accordingly, we compared the expandability and multipotency of neurospheres that were produced in EGF alone or EGF plus CNTF. For expandability, pass 1 neurospheres were dissociated and replated at clonal density to generate pass 2 neurospheres, and the number of pass 2 neurospheres that were derived from a single pass 1 sphere was counted. […] Therefore, neural stem cells differentiate to glial cells by default, which can be inhibited by CNTF.

[2] = tested on: neural stem cells in the subventricular zone; experiment: Subcutaneous administration, number of neural stem cells in the subventricular zone; assay type: in vivo
[3] = Forelimb inhibition test in focal ischemic injury (stroke) model; assay type: in vivo; conditions: rats with focal ischemic injury; first infusion days 1-7, second infusion days 8-14
Description: (§1) Adult male Long-Evans rats (250-350 g) were obtained from Charles River Breeding Farms and were adapted to the colony for two weeks prior to any treatment. A week before surgery the rats were given a baseline testing on the behavioral tests.
(§2) The animals for the stroke study received unilateral devascularization of the sensorimotor cortex. Using Isoflurane anesthesia, the skin was incised and retracted and the overlying fascia were removed from the skull. A skull opening was made at the following coordinates, taking care not to damage the dura: AP +4.0 to −2.0; L 1.5 to 4 (the parasagittal ridge; Kolb et al., 1997). The dura was cut and retracted from the skull opening. A cotton swab soaked in sterile saline was gently rubbed across the exposed pia and the vessels were removed. A hole was then drilled in the contralateral hemisphere to provide an opening for the cannulae attached to the osmotic minipump at AP −0.5; L 1.5. […]
(§3) Six days later the animals were assessed using the behavioral test. […]
In normal rats, swimming is accomplished by propulsion from the hind limbs. […] Inhibition of the forelimbs was assessed by filming animals while swimming. […]
(§4) The animals then received various test factors, and the effects of these factors on the forelimb inhibition test and brain anatomy were assessed. […]

[4] = Forelimb asymmetry test in focal ischemic injury (stroke) model; assay type: in vivo; conditions: rats with focal ischemic injury; first infusion days 1-7, second infusion days 8-14
Description: as §1
as §2, with “removed.” for “removed. A hole was then drilled in the contralateral hemisphere to provide an opening for the cannulae attached to the osmotic minipump at AP −0.5; L 1.5.”
as §3
Forepaw asymmetry of the animals was determined by filming them from below while in an acrylic cylinder 25 cm in diameter, on an acrylic platform. Preference was determined by separately counting the number of times in 5 minutes that an animal reared and placed the left or right forepaw on the surface of the cylinder in a gesture of postural stabilization. […]
as §4

[5] = tested on: migrating neuronal progenitor cells; experiment: Brain anatomical analysis (Cresyl Violet, Doublecortin) in focal ischemic injury (stroke) model; assay type: in vivo; conditions: rats with focal ischemic injury, end of week 6
Description: The animals for the stroke study received unilateral devascularization of the sensorimotor cortex. Using Isoflurane anesthesia, the skin was incised and retracted and the overlying fascia were removed from the skull. A skull opening was made at the following coordinates, taking care not to damage the dura: AP +4.0 to −2.0; L 1.5 to 4 (the parasagittal ridge; Kolb et al., 1997). The dura was cut and retracted from the skull opening. A cotton swab soaked in sterile saline was gently rubbed across the exposed pia and the vessels were removed. A hole was then drilled in the contralateral hemisphere to provide an opening for the cannulae attached to the osmotic minipump at AP −0.5; L 1.5. An osmotic minipump was placed under the skin between the shoulder blades and a tube connected under the skin to the cannulae, which was attached to the skull with fast-drying cement. Once hemostasis had been achieved the scalp was sutured closed with 5-O sterile suture. The animals were given a single injection of Banamine (an analgesic) and returned to their home cage. Sham animals received only anesthesia, the bone opening, and the skin was incised and sutured. […] The animals then received various test factors, and the effects of these factors on the forelimb inhibition test and brain anatomy were assessed. […]

Substance	glial cells generated by neurospheres, relative to those produced in EGF plus CNTF [1]	delivery by subcutaneous administration to modulate the number of neural stem cells in the subventricular zone [2]	forepaw inhibition / motor function in the forelimb inhibition test [3]	recovery of forelimb asymmetry / motor function in the forelimb asymmetry test [4]	doublecortin staining / doublecortin positive cells in the brain [5]
EGF: epidermal growth factor; human recombinant EGF for infusion (NSDSECPLSHDGYCLHDGVCMYIEALDKYACNCVVGYIGERCQYRDLKWWELR; UniProt P01133 971-1023, looked up)	4 times	–	–	–	–
IGF-1: IGF-1, a factor said to proliferate neural stem cells	–	effectively delivered	–	–	–
PACAP: pituitary adenylate cyclase activating polypeptide (HSDGIFTDSYSRYRKQMAVKKYLAAVLGKRYKQRVKNK; ends and bridges not checked; UniProt P18509 132-169, looked up)	–	effectively delivered	–	–	–
growth hormone: growth hormone, first infusion days 1-7, then CSF (Group 5)	–	effectively delivered	reversed effect	improvement of motor functions; also recorded: recovered from asymmetrical forelimb usage; also recorded: improved a motor neuron-related function; also recorded: reversed effect	increased doublecortin positive cells
